Laboratory results: PMC10935026 (Acta Pharmaceutica Sinica. B, 2023)

How the values were obtained:
[1] = molecular target: GCGR (Homo sapiens, UniProt P47871); assay: GCGR activation CRE-Luc reporter assay in vitro; assay type: cell-based
[2] = molecular target: human serum albumin (human, UniProt P02768 25-609); assay: ITC

Chain of GCGR (P47871 26-477): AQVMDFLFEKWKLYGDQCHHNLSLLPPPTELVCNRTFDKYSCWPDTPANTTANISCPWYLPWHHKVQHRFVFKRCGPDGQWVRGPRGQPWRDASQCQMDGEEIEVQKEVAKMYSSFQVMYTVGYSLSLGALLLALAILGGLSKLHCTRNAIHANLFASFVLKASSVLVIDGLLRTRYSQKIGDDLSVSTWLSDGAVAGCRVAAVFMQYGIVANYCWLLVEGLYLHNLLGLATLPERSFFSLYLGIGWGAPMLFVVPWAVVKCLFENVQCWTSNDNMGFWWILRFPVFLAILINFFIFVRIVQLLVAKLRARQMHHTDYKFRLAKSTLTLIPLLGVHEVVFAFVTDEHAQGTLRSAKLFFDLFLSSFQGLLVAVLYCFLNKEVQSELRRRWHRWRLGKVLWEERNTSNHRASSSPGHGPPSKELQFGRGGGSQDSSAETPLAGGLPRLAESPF

| Kd [2] [µM] | Molecule | EC50 [1] [µM] |
| --- | --- | --- |
| – | CCCCCCCCCCCCCCCC(=O)N[C@@H](CCC(=O)NCCCC[C@H](NC(=O)[C@H](C)NC(=O)[C@H](C)NC(=O)[C@H](CCC(N)=O)NC(=O)CNC(=O)[C@H](CCC(=O)O)NC(=O)[C@H](CC(C)C)NC(=O)[C@H](Cc1ccc(O)cc1)NC(=O)[C@H](CO)NC(=O)[C@H](CO)NC(=O)[C@@H](NC(=O)[C@H](CC(=O)O)NC(=O)[C@H](CO)NC(=O)[C@@H](NC(=O)[C@H](Cc1ccccc1)NC(=O)[C@@H](NC(=O)CNC(=O)[C@H](CCC(=O)O)NC(=O)[C@H](C)NC(=O)[C@@H](N)Cc1cnc[nH]1)[C@@H](C)O)[C@@H](C)O)C(C)C)C(=O)N[C@@H](CCC(=O)O)C(=O)N[C@@H](Cc1ccccc1)C(=O)N[C@H](C(=O)N[C@@H](C)C(=O)N[C@@H](Cc1c[nH]c2ccccc12)C(=O)N[C@@H](CC(C)C)C(=O)N[C@H](C(=O)N[C@@H](CCCNC(=N)N)C(=O)NCC(=O)N[C@@H](CCCNC(=N)N)C(=O)NCC(=O)O)C(C)C)[C@@H](C)CC)C(=O)O [Liraglutide, liraglutide] | > 1 |
| 805 | GGSGSG [6-amino acid linker GGSGSG] | – |
